In patent US20070161644A1, “Erastin analogs and uses thereof” (priority 2005, published 2007):
pIC50: −log10 of the molar value.

Experiments:
BJELR = experiment: Sytox primary screen; format: cell-based; conditions: Homo sapiens, Sytox screen, 48 hours, read-out: IC50 in BJELR
Source text: The Sytox primary screen is a phenotypic assay which monitors alterations in cell survival-proliferation as a result of compound treatment. It was devised as high throughput method to identify compounds which specifically alter the growth potential of cells harboring the causative mutations found in cancer patients while not affecting the growth of normal cells.
The assay relies upon an inexpensive, simple and reliable readout of a membrane impermeable fluorescent dye (Sytox, from Molecular Probes) which binds to nucleic acid. In healthy cells, no signal is detected because the cell's membrane is intact and the dye will not enter. However, if a cell's membrane is compromised as a result of apoptosis or necrosis, a fluorescent signal proportional to the number of similarly affected cells will be detected. By utilizing a two-step readout (final read in the presence of detergent to permit labeling of all cells), the assay can identify compounds which produce cytostasis, cytotoxicity and/or mitogenesis. The first read or “dead cell” read provides an estimate of the toxicity of a given compound by indicating the number of dead or dying cells in the culture at the time of assay. The second read or “total cell” read captures both the cumulative effects of cytoxicity in reducing the size of the cell population as well as any cytostatic or anti-proliferative effects a test compound may exert on the cells in the test population in the absence of toxicity.
For the purpose of screening, the previously described BJ-TERT line was defined as the “normal” reference cell line and BJ-TERT/LT/ST/RAS^V12 cells were the tumorigenic cell line. Cells were seeded overnight in 96 well plates at densities which without treatment would permit 95% confluence in the wells 72 H later. The following day, the cells were exposed to test compounds in a dilution series for a period of 48 hours. Following this incubation period, the Sytox reagent was added to the cultures at the manufacturer's recommended concentration and the dead cell fluorescence read was taken. After completion of this measurement, the detergent Saponin was added to each well of the cultures to permeabilize the membranes allowing the Sytox reagent to enter every cell thereby, facilitating measurement of the total number of cells remaining in the culture.

PANC-1 xenografts = experiment: PANC-1 tumor treatment study; format: in vivo; conditions: immunodeficient nude mouse; once a day for five consecutive days
Method: The experimental plan for the PANC-1 study was essentially identical to that of the HT-1080 study outlined above in Example 10 with the following exceptions: approximately 30-40 mg fragment of passaged PANC-1 tumor tissue was implanted subcutaneously in the right flank of an immunodeficient nude mouse. Tumor growth was monitored daily and when the tumors reached approximately 100 mm^3, animals harboring similarly sized tumors were group matched and compound dosing was initiated. Administration of compound 5 occurred once a day for five consecutive days at the doses listed below. In the PANC-1 xenografts, gemcitabine, administered at the maximum tolerated dose for the model, was used as a control. The gemcitabine regimen was 180 mg/kg […] on every third day over a period of 9 days.

HT-1080 xenografts = experiment: HT-1080 tumor treatment study; format: in vivo, mouse; conditions: nude Balb/c mice; 100 or 50 mg/Kg, QD×5 days, IP
Method: Nude Balb/c (Nu/Nu strain, Charles River Laboratories), female, 5-6 week. old (˜20 g average body weight).
Both compounds were formulated in an identical manner. For the 100 mg/kg dose level, each compound was delivered at a concentration of 10.0 mg/ml, in an injection volume of 0.2 ml. For the 50 mg/kg dose level, each compound was delivered at a concentration of 5.0 mg/ml, in an injection volume of 0.2 ml. For both dose levels, the vehicle contained 0.025% Tween-80, 0.01% benzyl alcohol, 35 mM acetic acid (HOAc), 100 mM potassium phosphate buffer, and 32 mM sucrose, pH=6.5.
Beginning when the mean tumor volume reached ˜200 mm^3, and continuing through day 5, every day, each animal was administered a single IP injection of one of the above treatments, for a total of 5 doses.
Each of 70 mice was implanted with 1×10^7 HT-1080 cells by SC injection of 0.1 cc of inoculum into the right hind flank. A 25 G×⅝″ needle size was used. […]
Starting on Day 1, all animals were weighed, and tumor dimensions (length (L) and width (W)) were measured, every other day. […]
The resulting tumor volume values were averaged for each study group for each time point, and were then plotted against time. Variance was expressed as standard error of the mean (±SEM).

[1] = test system: BJ-TERT/LT/ST/RAS^V12 cells; experiment: Calcein AM viability assay, dilution series; format: cell-based, human; conditions: within 18 hours; BJ-TERT/LT/ST/RAS^V12 cells
Method: Described here is work carried out to identify compounds with increased potency or activity in the presence of hTERT, LT, ST, E6, E7 or RAS^V12. Although the work described herein made use of hTERT, LT, ST, E6, E7 and RAS^V12 as transforming genes, future studies can make use of a wide variety of cancer-associated alleles using this methodology in order to define the signaling networks that involve many oncogenes and tumor suppressors. […] Cell viability was measured using the dye calcein acetoxymethyl ester (calcein AM) (Wang et al., 1993, Hum. Immunol. 37, 264-270), which is a non-fluorescent compound that freely diffuses into cells. […]
Calcein acetoxylmethyl ester (AM) is a cell membrane-permeable, non-fluorescent compound that is cleaved by intracellular esterases to form the anionic, cell-impermeable, fluorescent compound calcein. […] Total fluorescence intensity in each well was recorded on a Packard Fusion platereader, and converted to a percent inhibition of signal by subtracting the instrument background and dividing by the average signal obtained when cells were not treated with any compound. […]
Mean RFU (relative fluorescence units) for untreated cells was calculated by averaging columns 1, 2, and 23 (wells with cells but lacking compounds). The calcein background was calculated by averaging column 24 (wells with calcein, but lacking cells). […]

[2] = test system: BJ-TERT/LT/ST/RAS^V12 cells; experiment: Annexin V-FITC apoptosis assay; format: cell-based, human; conditions: erastin-treated (9 μM); untreated 6%
Method: BJ-TERT/LT/ST/RAS^V12 cells were seeded at 1×10^6 cells per dish in 100 mm dishes and allowed to grow overnight. Cells were treated with erastin (5 or 10 μg/ml) for 6, 8 or 11 h. A camptothecin-treated (0.4 μg/ml) control was maintained, treated at the time of seeding for 20 hours. After the treatment, cells were harvested with trypsin/EDTA and washed once with fresh medium containing serum and then twice with phosphate buffered saline. Cells were resuspended in 1× binding buffer (BD Pharmingen) at a concentration of 1×10^6 cells/ml. 100 μl (1×10^5 cells) was incubated with 5 μl of Annexin V-FITC (BD Pharmingen) and propidium iodiode (BD Pharmingen) for 15 minutes in the dark at room temperature. Then 400 μl of the 1× binding buffer was added and the cells analyzed by flow cytometry (Becton-Dickinson). Data were acquired and analyzed using Cellquest software.

[3] = test system: BJ-TERT/LT/ST/RAS^V12 cells relative to BJ-TERT cells; experiment: Alamar Blue viability assay, tumorigenic versus wild type cells; format: cell-based, human
Method: Alamar Blue is reduced by mitochondrial enzyme activity in viable cells, causing both colorimetric and fluorescent changes (Nociari et al., 1998, J. Immunol. Methods 13, 157-167). Cells were seeded at a density of 6000 cells (50 μl) per well in a 384-well black, clear bottom plate using a syringe bulk dispenser (Zymark). 10 μl was removed from a two-fold serially diluted erastin plate (6× final concentration) using a 384 fixed cannula head, making the final concentration 20 μg/ml in the well with highest concentration. The plates were incubated for 24 hours. Alamar Blue (Biosource International) was added to each well by diluting 1:10 and incubated for 16 hours at 37° C. Fluorescence intensity was determined using a Packard Fusion platereader with an excitation filter centered on 535 nm and an emission filter centered on 590 nm. Average percentage inhibition at each concentration was calculated. Error bars indicate one standard deviation.
The effect of erastin or erastin B on cell viability was measured using Alamar Blue as described in Example 3 in both tumorigenic BJ-TERT/LT/ST/RAS^V12 (BJELR) cells and wild type BJ-TERT (BJEH) cells. In this example, cell viability was measured at 1, 2, and 3 days after treatment with erastin or erastin B (data for days 1 and 3 not shown). Average percentage inhibition at each concentration was measured.
The effect on cell viability of each of the two isomers of Compound 20 was measured using the Alamar Blue assay described in Example 3 in both tumorigenic BJ-TERT/LT/ST/RAS^V12 cells and wild type BJ-TERT cells. Average percentage inhibition at each concentration was measured.
The effect on cell viability of erastin or Compound 21 was measured using the Alamar Blue assay as described in Example 3 in both tumorigenic BJ-TERT/LT/ST/RAS^V12 cells and in wild type BJ-TERT cells. Average percentage inhibition at each concentration was measured. […]

Row | SMILES | pIC50 (BJELR) | other results
1 | CCOc1ccccc1-n1c(C(C)N2CCNCC2)nc2cc(Cl)ccc2c1=O (centres unmarked) [Compound 14] | ≤ 7.00 | 
2 | CCOc1ccccc1-n1c(C(C)N2CCNCC2)nc2ccccc2c1=O (centres unmarked) [Compound 6] | ≤ 6.00 | antitumor activity in PANC-1 xenografts (PANC-1 xenografts): tumor growth inhibition; antitumor activity in HT-1080 xenografts (HT-1080 xenografts): tumor growth inhibition
3 | CCOc1ccccc1-n1c(C(C)N2CCN(CCO)CC2)nc2ccccc2c1=O (centres unmarked) [Compound 9] | ≤ 6.00 | 
4 | CCN1CCN(Cc2nc3ccccc3c(=O)n2-c2c(Cl)cccc2Cl)CC1 [Compound 17] | ≤ 7.00 | 
5 | CCOc1ccccc1-n1c(C(C)N2CCN(C(=O)COc3ccc(Cl)cc3)CC2)nc2ccccc2c1=O (centres unmarked) [Erastin, 2-[1′-(N-(4″-chlorophenoxyacetyl)-N-piperazino]-ethyl]-3-(2′″-ethoxyphenyl)-quinazolin-4-one] |  | effectiveness (cell death) [1]: 100%; percentage of cells in M1 region (Annexin V staining) [2]: 6%
6 | O=c1c2ccccc2nc(CN2CCNCC2)n1-c1c(Cl)cccc1Cl [Compound 16] | ≤ 7.00 | 
7 | CCOc1ccccc1-n1c(CN2CCCNCC2)nc2ccccc2c1=O [Compound 13] | > 7.00 | 
8 | CCOc1ccccc1-n1c(CN2CCN(CC)CC2)nc2ccccc2c1=O [Compound 11] | ≤ 7.00 | 
9 | CCOc1ccccc1-n1c(CN2CCN(C(=O)COc3ccc(Cl)cc3)CC2)nc2ccccc2c1=O [Compound 21, 2-({4-[(4-chlorophenoxy)acetyl]piperazin-1-yl}methyl)-3-(2-ethoxyphenyl)quinazolin-4(3H)-one] |  | lethality in BJ-TERT/LT/ST/RAS^V12 (BJELR) cells compared to BJ-TERT (BJEH) cells [3]: selective lethality; profile compared to erastin ([3]; both cell types): profile nearly identical to that of erastin
10 | CCOc1ccccc1-n1c(CN2CCN(C)CC2)nc2ccccc2c1=O [Compound 10] | ≤ 6.00 | 
11 | CCOc1ccccc1-n1c(CN2CCCN(C)CC2)nc2ccccc2c1=O [Compound 12] | > 7.00 | 
12 | CCOc1ccccc1-n1c(C(C)N2CCN(C)CC2)nc2ccccc2c1=O (centres unmarked) [Compound 8] | ≤ 6.00 | 
13 | CCOc1ccccc1-n1c(CN2CCN(CC#N)CC2)nc2ccccc2c1=O [Compound 7] | ≤ 7.00 | 
